{"source": "patent US10385022B2", "about": "“3-amino-pyridines as GPBAR1 agonists” (HOFFMANN-LA ROCHE INC., priority 2011, dated 2019)", "note": "pEC50: −log10 of the molar value."}
{"biological_target": "human GPBAR1 receptor (Homo sapiens (Human), UniProt Q8TDU6)", "sequence (Q8TDU6 whole entry)": "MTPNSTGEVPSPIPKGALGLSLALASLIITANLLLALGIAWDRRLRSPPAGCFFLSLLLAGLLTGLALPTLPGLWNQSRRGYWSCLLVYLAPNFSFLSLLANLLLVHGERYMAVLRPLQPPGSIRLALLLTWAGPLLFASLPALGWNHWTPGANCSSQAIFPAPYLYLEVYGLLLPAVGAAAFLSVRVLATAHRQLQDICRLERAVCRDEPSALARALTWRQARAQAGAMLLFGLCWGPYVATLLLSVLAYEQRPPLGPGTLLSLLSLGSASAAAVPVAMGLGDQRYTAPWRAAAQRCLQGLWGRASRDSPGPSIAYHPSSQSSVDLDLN", "assay": "functional cAMP assay in CHO-dhfr(minus) cells expressing human GPBAR1 receptors", "assay_type": "cell-based", "conditions": "CHO-dhfr(minus) cells expressing human GPBAR1, 30 min at 30° C.", "how_it_was_run": "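Functional cAMP responses in a human GPBAR1-transfected CHO-dhfr- clone, picked using lithocholic acid as agonist, gave the EC50 values. Parallel testing in untransfected CHO cells served as a specificity control.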"}
{"molecule": "Cc1ccc(-c2ccncc2N(C)C(=O)c2cc(C(F)(F)F)cc(C(F)(F)F)c2)c(C)c1", "note": "[Example 26, N-[4-(2,4-Dimethyl-phenyl)-pyridin-3-yl]-N-methyl-3,5-bis-trifluoromethyl-benzamide]", "pEC50": 6.16}
{"molecule": "CN(C(=O)c1cc(C(F)(F)F)cc(C(F)(F)F)c1)c1cnccc1-c1ccnc(Cl)c1F", "note": "[Example 56, N-(2′-Chloro-3′-fluoro-[4,4′]bipyridinyl-3-yl)-N-methyl-3,5-bis-trifluoromethyl-benzamide]", "pEC50": 6.37}
{"molecule": "CN(C(=O)c1cc(Br)cc(C(F)(F)F)c1)c1cnccc1-c1ccccc1Cl", "note": "[Example 74, 3-Bromo-N-[4-(2-chloro-phenyl)-pyridin-3-yl]-N-methyl-5-trifluoromethyl-benzamide]", "pEC50": 7.47}
{"molecule": "CN(C(=O)c1cc(C(F)(F)F)cc(C(F)(F)F)c1)c1cnccc1-c1ccc(F)cc1Cl", "note": "[Example 67, N-[4-(2-Chloro-4-fluoro-phenyl)-pyridin-3-yl]-N-methyl-3,5-bis-trifluoromethyl-benzamide]", "pEC50": 7.25}
{"molecule": "COC(=O)CN(C(=O)c1cc(C(F)(F)F)cc(S(C)(=O)=O)c1)c1cnccc1-c1cccnc1OC", "note": "[Example 180, [(3-Methanesulfonyl-5-trifluoromethyl-benzoyl)-(2-methoxy-[3,4′]bipyridinyl-3′-yl)-amino]-acetic acid methyl ester]", "pEC50": 6.71}
{"molecule": "COc1cc(F)c(F)cc1-c1ccncc1N(CCS(C)(=O)=O)C(=O)c1cc(C(F)(F)F)nc(C(F)(F)F)c1", "note": "[Example 158, N-[4-(4,5-Difluoro-2-methoxy-phenyl)-pyridin-3-yl]-N-(2-methanesulfonyl-ethyl)-2,6-bis-trifluoromethyl-isonicotinamide]", "pEC50": 6.68}
{"molecule": "COc1ccc(F)c(-c2ccncc2N(C)C(=O)c2cc(C(F)(F)F)cc(S(C)(=O)=O)c2)c1F", "note": "[Example 285, N-[4-(2,6-Difluoro-3-methoxy-phenyl)-pyridin-3-yl]-3-methanesulfonyl-N-methyl-5-trifluoromethyl-benzamide]", "pEC50": 5.54}
{"molecule": "COc1cc(F)ccc1-c1ccncc1N(CC1CCOC1)C(=O)c1cc(C(F)(F)F)cc(S(C)(=O)=O)c1", "note": "(stereo not drawn) [Example 273, N-[4-(4-Fluoro-2-methoxy-phenyl)-pyridin-3-yl]-3-methanesulfonyl-N-(tetrahydro-furan-3-ylmethyl)-5-trifluoromethyl-benzamide]", "pEC50": 5.83}
{"molecule": "COc1cc(F)ccc1-c1ccncc1N(C)C(=O)c1cc(Cl)cc(S(C)(=O)=O)c1", "note": "[Example 257, 3-Chloro-N-[4-(4-fluoro-2-methoxy-phenyl)-pyridin-3-yl]-5-methanesulfonyl-N-methyl-benzamide]", "pEC50": 7.10}
{"molecule": "COc1cc(F)ccc1-c1ccncc1N(CC1CCCO1)C(=O)c1cc(C(F)(F)F)cc(S(C)(=O)=O)c1", "note": "(single isomer, unassigned; (-)) [Example 233, (−)-N-[4-(4-Fluoro-2-methoxy-phenyl)-pyridin-3-yl]-3-methanesulfonyl-N-[1-(tetrahydro-furan-2-yl)methyl]-5-trifluoromethyl-benzamide]", "pEC50": 7.27}
{"molecule": "COc1cc(F)ccc1-c1ccncc1N(CC#N)C(=O)c1cc(C(F)(F)F)cc(S(C)(=O)=O)c1", "note": "[Example 228, N-Cyanomethyl-N-[4-(4-fluoro-2-methoxy-phenyl)-pyridin-3-yl]-3-methanesulfonyl-5-trifluoromethyl-benzamide]", "pEC50": 7.24}
{"molecule": "Cc1ccccc1-c1ccncc1N(C(=O)c1cc(C(F)(F)F)cc(C(F)(F)F)c1)C1COC1", "note": "[Example 200, N-Oxetan-3-yl-N-(4-o-tolyl-pyridin-3-yl)-3,5-bis-trifluoromethyl-benzamide]", "pEC50": 5.92}
{"molecule": "Cc1ccccc1-c1ccncc1N(C)C(=O)c1ccc(C(F)(F)F)c(F)c1", "note": "[Example 94, 3-Fluoro-N-methyl-N-(4-o-tolyl-pyridin-3-yl)-4-trifluoromethyl-benzamide]", "pEC50": 5.67}
{"molecule": "COc1cc(F)ccc1-c1ccncc1N(C)C(=O)c1cc(C(F)(F)F)cc(S(=O)(=O)CCN2CCC2)c1", "note": "[Example 265, 3-(2-Azetidin-1-yl-ethanesulfonyl)-N-[4-(4-fluoro-2-methoxy-phenyl)-pyridin-3-yl]-N-methyl-5-trifluoromethyl-benzamide]", "pEC50": 6.92}
{"molecule": "Cc1nc(C)c(-c2ccncc2N(C)C(=O)c2cc(C(F)(F)F)cc(C(F)(F)F)c2)s1", "note": "[Example 209, N-[4-(2,4-Dimethyl-thiazol-5-yl)-pyridin-3-yl]-N-methyl-3,5-bis-trifluoromethyl-benzamide]", "pEC50": 5.83}
{"molecule": "COc1cc(F)c(F)cc1-c1ccncc1N(CC(F)(F)F)C(=O)c1cc(F)cc(C(F)(F)F)c1", "note": "[Example 132, N-[4-(4,5-Difluoro-2-methoxy-phenyl)-pyridin-3-yl]-3-fluoro-N-(2,2,2-trifluoro-ethyl)-5-trifluoromethyl-benzamide]", "pEC50": 5.88}
{"molecule": "COc1cc(F)ccc1-c1ccncc1N(C[C@@H]1CCCOC1)C(=O)c1cc(C(F)(F)F)cc(S(C)(=O)=O)c1", "note": "[Example 299, (+)-N-[4-(4-Fluoro-2-methoxy-phenyl)-pyridin-3-yl]-3-methanesulfonyl-N-[1-(tetrahydro-pyran-3-yl)methyl]-5-trifluoromethyl-benzamide]", "pEC50": 6.02}
{"molecule": "O=C(c1cc(C(F)(F)F)nc(C(F)(F)F)c1)N(CC(F)(F)F)c1cnccc1-c1ccccc1F", "note": "[Example 151, N-[4-(2-Fluoro-phenyl)-pyridin-3-yl]-N-(2,2,2-trifluoro-ethyl)-2,6-bis-trifluoromethyl-isonicotinamide]", "pEC50": 7.33}
{"molecule": "COC(=O)CCSc1cc(C(=O)N(C)c2cnccc2-c2ccc(F)cc2OC)cc(C(F)(F)F)c1", "note": "[Example 225, 3-(3-{[4-(4-Fluoro-2-methoxy-phenyl)-pyridin-3-yl]-methyl-carbamoyl}-5-trifluoromethyl-phenylsulfanyl)-propionic acid methyl ester]", "pEC50": 6.62}
{"molecule": "O=C(c1cc(C(F)(F)F)cc(C(F)(F)F)c1)N(c1cnccc1-c1ccccc1Cl)C1CC1", "note": "[Example 124, N-[4-(2-Chloro-phenyl)-pyridin-3-yl]-N-cyclopropyl-3,5-bis-trifluoromethyl-benzamide]", "pEC50": 5.70}
{"molecule": "CC(C)Oc1ccccc1-c1ccncc1N(C)C(=O)c1cc(C(F)(F)F)cc(C(F)(F)F)c1", "note": "[Example 35, N-[4-(2-Isopropoxy-phenyl)-pyridin-3-yl]-N-methyl-3,5-bis-trifluoromethyl-benzamide]", "pEC50": 6.79}
{"molecule": "COc1nc(C)ccc1-c1ccncc1N(C)C(=O)c1cc(C(F)(F)F)cc(C(F)(F)F)c1", "note": "[Example 47, N-(2-Methoxy-6-methyl-[3,4′]bipyridinyl-3′-yl)-N-methyl-3,5-bis-trifluoromethyl-benzamide]", "pEC50": 7.17}
{"molecule": "COc1c(-c2ccncc2N(C)C(=O)c2cc(C(F)(F)F)cc(C(F)(F)F)c2)ccc(F)c1F", "note": "[Example 60, N-[4-(3,4-Difluoro-2-methoxy-phenyl)-pyridin-3-yl]-N-methyl-3,5-bis-trifluoromethyl-benzamide]", "pEC50": 6.94}
{"molecule": "COC(=O)CN(C(=O)c1cc(C(F)(F)F)nc(C(F)(F)F)c1)c1cnccc1-c1cccnc1OC", "note": "[Example 182, Methyl 2-(N-(2-methoxy-3,4′-bipyridin-3′-yl)-2,6-bis(trifluoromethyl)isonicotinamido)acetate]", "pEC50": 7.57}
{"molecule": "CN(C(=O)c1cc(C(F)(F)F)cc(C(F)(F)F)c1)c1cnccc1-c1ccccc1N", "note": "[Example 222, N-[4-(2-Amino-phenyl)-pyridin-3-yl]-N-methyl-3,5-bis-trifluoromethyl-benzamide]", "pEC50": 6.74}
{"molecule": "COc1cc(C(=O)N(C)c2cnccc2-c2ccc(F)cc2OC)cc(Cl)n1", "note": "[Example 198, 2-Chloro-N-[4-(4-fluoro-2-methoxy-phenyl)-pyridin-3-yl]-6-methoxy-N-methyl-isonicotinamide]", "pEC50": 7.04}
{"molecule": "Cc1ccccc1-c1ccncc1N(C)C(=O)c1cc(C(F)(F)F)nc(S(C)(=O)=O)c1", "note": "[Example 194, 2-Methanesulfonyl-N-methyl-N-(4-o-tolyl-pyridin-3-yl)-6-trifluoromethyl-isonicotinamide]", "pEC50": 6.59}
{"molecule": "Cc1cc(C(=O)N(C)c2cnccc2-c2ccccc2C)cc(C(F)(F)F)c1", "note": "[Example 108, 3,N-Dimethyl-N-(4-o-tolyl-pyridin-3-yl)-5-trifluoromethyl-benzamide]", "pEC50": 7.15}
{"molecule": "COc1cc(F)ccc1-c1ccnc(C)c1N(C)C(=O)c1cc(C(F)(F)F)cc(S(C)(=O)=O)c1", "note": "[Example 230, N-[4-(4-Fluoro-2-methoxy-phenyl)-2-methyl-pyridin-3-yl]-3-methanesulfonyl-N-methyl-5-trifluoromethyl-benzamide]", "pEC50": 7.14}
{"molecule": "COCCN(C(=O)c1cc(C(F)(F)F)cc(C(F)(F)F)c1)c1cnccc1-c1ccccc1Cl", "note": "[Example 89, N-[4-(2-Chloro-phenyl)-pyridin-3-yl]-N-(2-methoxy-ethyl)-3,5-bis-trifluoromethyl-benzamide]", "pEC50": 8.10}
